According to article PMC8667902 (Journal of Enzyme Inhibition and Medicinal Chemistry, 2021):
Where “and” joins values, the source holds several entries; their conditions need not be identical. Equal values may be shown once.

Experiments:
[1] = molecular target: T1, Aβ1–42 fibrils (Homo sapiens, UniProt P05067); experiment: Disaggregation of Cu2+-induced Aβ1–42 aggregation; format: biochemical; conditions: 25 μM; ThT assay
[2] = molecular target: T2, Aβ1–42 (Homo sapiens, UniProt P05067); experiment: Inhibition of Cu2+-induced Aβ1–42 aggregation; format: biochemical; conditions: read-out: Inhibition of Aβ1–42 aggregation (%) Cu^2+-induced
T2 sequence (P05067 672-713): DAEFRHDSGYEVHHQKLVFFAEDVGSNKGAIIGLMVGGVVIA

[3] = molecular target: T2, Aβ1–42; experiment: Inhibition of self-induced Aβ1–42 aggregation; format: biochemical; conditions: read-out: Inhibition of Aβ1–42 aggregation (%) Self-induced, 25 μM; ThT assay
[4] = molecular target: eeAChE (Electrophorus electricus, UniProt O42275); experiment: Ellman's method, electric eel AChE; format: biochemical
eeAChE, sequence (O42275 24-633): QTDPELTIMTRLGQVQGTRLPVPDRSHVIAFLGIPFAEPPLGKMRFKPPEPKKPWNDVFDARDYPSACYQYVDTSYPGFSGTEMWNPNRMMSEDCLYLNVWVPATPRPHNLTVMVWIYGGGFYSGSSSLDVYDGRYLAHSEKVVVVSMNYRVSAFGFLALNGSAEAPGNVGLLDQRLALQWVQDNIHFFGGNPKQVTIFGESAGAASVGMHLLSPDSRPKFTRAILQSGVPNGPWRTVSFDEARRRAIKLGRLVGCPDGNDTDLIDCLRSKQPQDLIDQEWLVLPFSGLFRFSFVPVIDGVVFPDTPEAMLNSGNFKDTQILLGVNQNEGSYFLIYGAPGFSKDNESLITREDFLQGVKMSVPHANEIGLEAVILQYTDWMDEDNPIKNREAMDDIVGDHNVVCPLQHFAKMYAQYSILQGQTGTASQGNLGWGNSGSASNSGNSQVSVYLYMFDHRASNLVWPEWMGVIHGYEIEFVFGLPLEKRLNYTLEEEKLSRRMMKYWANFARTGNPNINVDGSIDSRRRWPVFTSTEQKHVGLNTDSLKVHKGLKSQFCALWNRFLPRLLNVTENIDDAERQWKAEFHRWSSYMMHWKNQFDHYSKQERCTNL

[5] = molecular target: T3, huMAO-B (Homo sapiens, UniProt P27338); experiment: biochemical; conditions: for inhibition at 10 µM: read-out: MAO-B percent inhibition rate
T3 sequence (P27338 1-520): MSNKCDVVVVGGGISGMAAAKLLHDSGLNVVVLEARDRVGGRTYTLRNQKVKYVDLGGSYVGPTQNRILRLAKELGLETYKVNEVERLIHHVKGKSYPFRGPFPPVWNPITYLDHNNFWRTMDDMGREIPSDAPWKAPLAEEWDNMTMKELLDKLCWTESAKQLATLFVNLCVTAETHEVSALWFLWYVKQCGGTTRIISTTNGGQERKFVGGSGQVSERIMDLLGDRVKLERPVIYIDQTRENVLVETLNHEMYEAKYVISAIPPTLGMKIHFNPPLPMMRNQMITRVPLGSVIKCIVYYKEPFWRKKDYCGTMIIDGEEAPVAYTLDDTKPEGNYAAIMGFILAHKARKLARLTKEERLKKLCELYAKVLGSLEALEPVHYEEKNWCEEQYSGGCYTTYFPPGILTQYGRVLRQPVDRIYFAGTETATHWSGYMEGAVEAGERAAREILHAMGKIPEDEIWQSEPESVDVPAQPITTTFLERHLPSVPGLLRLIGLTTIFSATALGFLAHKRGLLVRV

[6] = molecular target: T4, ratAChE (Rattus norvegicus, UniProt P37136); experiment: Ellman's method, AChE from rat cortex homogenate; format: biochemical; conditions: for SI = Selectivity index = IC50 (BuChE)/IC50 (AChE): ratBuChE over rat AChE
T4 sequence (P37136 32-614): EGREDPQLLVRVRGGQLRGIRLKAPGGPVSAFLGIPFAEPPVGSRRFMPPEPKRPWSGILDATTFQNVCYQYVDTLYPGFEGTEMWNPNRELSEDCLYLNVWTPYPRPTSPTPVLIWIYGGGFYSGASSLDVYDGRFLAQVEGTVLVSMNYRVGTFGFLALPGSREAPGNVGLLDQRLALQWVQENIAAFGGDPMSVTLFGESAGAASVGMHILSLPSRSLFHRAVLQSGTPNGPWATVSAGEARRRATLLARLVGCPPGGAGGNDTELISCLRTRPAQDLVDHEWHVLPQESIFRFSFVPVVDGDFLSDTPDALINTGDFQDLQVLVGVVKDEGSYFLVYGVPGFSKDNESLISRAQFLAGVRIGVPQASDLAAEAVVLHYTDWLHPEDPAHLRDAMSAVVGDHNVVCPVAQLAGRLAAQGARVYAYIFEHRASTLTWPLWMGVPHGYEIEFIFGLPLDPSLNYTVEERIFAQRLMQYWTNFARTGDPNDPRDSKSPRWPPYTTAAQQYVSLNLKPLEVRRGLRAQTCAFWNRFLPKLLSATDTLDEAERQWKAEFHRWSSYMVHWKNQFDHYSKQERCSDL

[7] = Metal chelation by UV-vis spectrometry and molar ratio method; format: physicochemical; conditions: for shift of characteristic UV peak after adding FeSO4 and ZnCl2 / characteristic UV peak after adding AlCl3 (red shift) / characteristic UV peak after adding CuCl2 (red shift): 37.5 μM; for characteristic UV peak after adding AlCl3 (red shift) / characteristic UV peak after adding CuCl2 (red shift): peak of compound alone: 9d 362 nm, 17f 350 nm
[8] = molecular target: ratBuChE (Rattus norvegicus, UniProt Q9JKC1); experiment: Ellman's method, BuChE from rat serum; format: biochemical
ratBuChE, sequence (Q9JKC1 24-597): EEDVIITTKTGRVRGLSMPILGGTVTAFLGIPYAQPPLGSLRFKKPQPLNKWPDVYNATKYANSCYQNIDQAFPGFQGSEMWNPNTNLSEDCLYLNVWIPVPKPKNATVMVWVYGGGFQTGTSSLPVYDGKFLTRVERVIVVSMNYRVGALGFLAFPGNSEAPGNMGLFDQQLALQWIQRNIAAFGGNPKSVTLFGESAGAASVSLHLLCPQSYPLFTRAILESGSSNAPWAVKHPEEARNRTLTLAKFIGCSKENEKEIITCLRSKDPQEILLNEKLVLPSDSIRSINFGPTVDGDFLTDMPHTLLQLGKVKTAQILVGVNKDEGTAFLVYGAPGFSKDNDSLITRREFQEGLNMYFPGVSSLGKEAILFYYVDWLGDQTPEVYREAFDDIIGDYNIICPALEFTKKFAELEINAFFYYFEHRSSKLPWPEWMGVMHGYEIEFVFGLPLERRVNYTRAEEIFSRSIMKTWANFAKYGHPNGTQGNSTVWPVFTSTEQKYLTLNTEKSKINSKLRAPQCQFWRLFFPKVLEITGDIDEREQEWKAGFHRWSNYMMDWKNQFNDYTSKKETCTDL

[9] = molecular target: T1, Aβ1–42 fibrils; experiment: Disaggregation of self-induced Aβ1–42 aggregation; format: biochemical; conditions: 25 μM; ThT assay
[10] = Oxygen Radicals Absorbance Capacity by Fluorescence; conditions: for ORAC: Trolox as reference; for ORAC-FL value: Trolox equivalents
[11] = molecular target: T5, huMAO-A (Homo sapiens, UniProt P21397); experiment: huMAO-A inhibition, fluorescence method; format: biochemical; conditions: for inhibition at 10 µM: read-out: MAO-A percent inhibition rate
T5 sequence (P21397 1-527): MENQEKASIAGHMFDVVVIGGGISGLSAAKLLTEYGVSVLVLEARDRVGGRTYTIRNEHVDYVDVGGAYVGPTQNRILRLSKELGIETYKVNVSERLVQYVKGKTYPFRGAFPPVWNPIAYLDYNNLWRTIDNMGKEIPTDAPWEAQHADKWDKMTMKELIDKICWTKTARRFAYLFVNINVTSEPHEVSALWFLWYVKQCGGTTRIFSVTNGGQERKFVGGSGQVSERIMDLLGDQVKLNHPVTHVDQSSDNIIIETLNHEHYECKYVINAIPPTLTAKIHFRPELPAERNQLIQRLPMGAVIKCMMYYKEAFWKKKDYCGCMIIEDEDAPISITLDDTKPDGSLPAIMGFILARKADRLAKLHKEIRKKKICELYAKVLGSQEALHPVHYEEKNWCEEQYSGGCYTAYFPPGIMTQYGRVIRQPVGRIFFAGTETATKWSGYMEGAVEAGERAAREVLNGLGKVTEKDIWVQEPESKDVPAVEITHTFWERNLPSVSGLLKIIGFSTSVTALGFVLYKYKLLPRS

[12] = molecular target: huAChE-induced Aβ1–40 aggregation (Homo sapiens, UniProt P22303); experiment: Inhibition of huAChE-induced Aβ1–40 aggregation; format: biochemical; conditions: compound 100 μM, Aβ1–40 230 μM, Aβ1–40/HuAChE 100/1; ThT; mean ± SEM
huAChE-induced Aβ1–40 aggregation, sequence (P22303 32-614): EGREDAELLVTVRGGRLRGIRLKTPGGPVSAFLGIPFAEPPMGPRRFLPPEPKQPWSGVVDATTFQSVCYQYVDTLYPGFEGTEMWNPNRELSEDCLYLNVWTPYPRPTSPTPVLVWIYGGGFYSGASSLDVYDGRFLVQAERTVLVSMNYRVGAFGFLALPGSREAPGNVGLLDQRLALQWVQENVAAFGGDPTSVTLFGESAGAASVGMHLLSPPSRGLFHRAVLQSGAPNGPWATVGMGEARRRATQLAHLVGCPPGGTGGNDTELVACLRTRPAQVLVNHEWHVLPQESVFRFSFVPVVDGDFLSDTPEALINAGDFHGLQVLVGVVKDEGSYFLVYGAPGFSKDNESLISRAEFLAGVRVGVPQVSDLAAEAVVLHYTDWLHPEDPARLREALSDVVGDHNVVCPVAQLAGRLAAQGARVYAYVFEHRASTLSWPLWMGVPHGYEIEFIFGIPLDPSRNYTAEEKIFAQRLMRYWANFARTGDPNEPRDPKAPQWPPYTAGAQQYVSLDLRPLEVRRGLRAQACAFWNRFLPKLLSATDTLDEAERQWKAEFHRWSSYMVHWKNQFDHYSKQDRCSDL

[13] = PAMPA-BBB
[14] = tested on: PC12 cells; experiment: Cytotoxicity in PC12 cells, MTT assay; format: cell-based; conditions: up to 50 µM
[15] = tested on: AChE; experiment: Kinetic characterisation of AChE inhibition; format: biochemical; conditions: Lineweaver-Burk plots, substrate acetylthiocholine
[16] = molecular target: AChE PAS (eeAChE) (Electrophorus electricus, UniProt O42275); experiment: Propidium iodide displacement assay; format: binding, electric eel; conditions: read-out: Propidium iodide displacement from AChE PAS (% inhibition)
AChE PAS (eeAChE), sequence (O42275 24-633): as the sequence (O42275 24-633) above

[17] = tested on: PC12 cells; experiment: Neuroprotection against H2O2-induced PC12 cell injury, LDH assay; format: cell-based; conditions: H2O2 alone 712.7, vehicle 602.3

T1 sequence (P05067 672-713): as the sequence (P05067 672-713) above

Compound	Disaggregation of Aβ1–42 aggregation (%) Cu^2+-induced [1]	inhibition at 25 µM [2] [%]	inhibition at 25 µM [3] [%]	IC50 [4] [µM]	IC50 [5] [µM]	IC50 [6] [µM]	SI = Selectivity index = IC50 (BuChE)/IC50 (AChE) [6]	IC50 [8] [µM]	Disaggregation of Aβ1–42 aggregation (%) Self-induced [9]	ORAC [10]	IC50 [11] [µM]	inhibition at 10 µM [11] [%]	also measured
CCN(CCCCOc1ccc(/C=C/C(=O)c2c(O)cc(OC)c(OC)c2OC)cc1)Cc1ccccc1OC [Compound 9d, (E)-3-(4-(4-(ethyl(2-methoxybenzyl)amino)butoxy)phenyl)-1-(6-hydroxy-2,3,4-trimethoxyphenyl)prop-2-en-1-one]	63.2 ± 0.63%	72.4 ± 0.01	72.7 ± 0.02	1.2 ± 0.01	12.3 ± 0.08	0.32 ± 0.02	1409.4	451 ± 1.68	33.0 ± 0.08%	1.01 ± 0.2 μM of Trolox equivalent/μM of compounds	38.2 ± 0.63	–	SI = selectivity index = IC50 (hMAO-A)/IC50 (hMAO-B) [5]: 3.1; shift of characteristic UV peak after adding FeSO4 and ZnCl2 [7]: no obvious shift; characteristic UV peak after adding AlCl3 (red shift) [7]: 376 nm; characteristic UV peak after adding CuCl2 (red shift) [7]: 444 nm; ORAC-FL value [10]: 0.96 eq
CCN(CCCOc1ccc(/C=C/C(=O)c2c(O)cc(OC)c(O)c2OC)cc1)Cc1ccccc1OC [Compound 17b, (E)-1-(3,6-dihydroxy-2,4-dimethoxyphenyl)-3-(4-(3-(ethyl(2-methoxybenzyl)amino)propoxy)phenyl)prop-2-en-1-one]	82.8 ± 0.03%	90.2 ± 0.02	82.1 ± 0.01	3.16 ± 0.02	–	0.73 ± 0.01	212.3	155 ± 5.8	60.2 ± 0.03%	2.9 ± 0.02 μM of Trolox equivalent/μM of compounds	–	14.6	inhibition at 10 µM [5]: 2.1%
COc1ccccc1CN(C)CCCCOc1ccc(/C=C/C(=O)c2c(O)cc(OC)c(O)c2OC)cc1 [Compound 17c, (E)-1-(3,6-dihydroxy-2,4-dimethoxyphenyl)-3-(4-(4-((2-methoxybenzyl)(methyl)amino)butoxy)phenyl)prop-2-en-1-one]	79.1 ± 0.15%	92.5 ± 0.03	68.4 ± 0.02	3.74 ± 0.03	–	1.63 ± 0.02	>306.7	> 500	75.9 ± 0.03%	2.8 ± 0.01 μM of Trolox equivalent/μM of compounds	18.3 ± 0.15	–	inhibition at 10 µM [5]: 11%
CCN(CCCCOc1ccc(/C=C/C(=O)c2c(O)cc(OC)c(O)c2OC)cc1)Cc1ccccc1OC [Compound 17d, (E)-1-(3,6-dihydroxy-2,4-dimethoxyphenyl)-3-(4-(4-(ethyl(2-methoxybenzyl)amino)butoxy)phenyl)prop-2-en-1-one]	79.8 ± 0.03%	91.7 ± 0.02	73.8 ± 0.01	3.68 ± 0.02	15.1 ± 0.16	0.58 ± 0.01	700	406 ± 15.2	45.7 ± 0.16%	3.1 ± 0.01 μM of Trolox equivalent/μM of compounds	–	16.7	–
COc1ccccc1CN(C)CCCCCCOc1ccc(/C=C/C(=O)c2c(O)cc(OC)c(O)c2OC)cc1 [Compound 17e, (E)-1-(3,6-dihydroxy-2,4-dimethoxyphenyl)-3-(4-((6-((2-methoxybenzyl)(methyl)amino)hexyl)oxy)phenyl)prop-2-en-1-one]	83.7 ± 0.03%	96.2 ± 0.02	65.7 ± 0.03	2.16 ± 0.01	12.8 ± 0.31	1.4 ± 0.02	>357.1	> 500	74.8 ± 0.31%	3.4 ± 0.02 μM of Trolox equivalent/μM of compounds	–	17.9	–
CCN(CCCCCCOc1ccc(/C=C/C(=O)c2c(O)cc(OC)c(O)c2OC)cc1)Cc1ccccc1OC [Compound 17f, (E)-1-(3,6-dihydroxy-2,4-dimethoxyphenyl)-3-(4-((6-(ethyl(2-methoxybenzyl)amino)hexyl)oxy)phenyl)prop-2-en-1-one]	84.5% and 84.5 ± 0.35%	93.5 ± 0.01	78 ± 0.02	1.88 ± 0.01	8.8 ± 0.06	–	>1219.5	> 500	72.3% and 72.3 ± 0.06%	3.3 ± 0.01 μM of Trolox equivalent/μM of compounds	37.5 ± 0.35	–	% Inhibition of huAChE-induced Aβ aggregation [12]: 53.9 ± 3.7%; SI = selectivity index = IC50 (hMAO-A)/IC50 (hMAO-B) [5]: 4.3; Papp ([13]; PAMPA): 4.23 ± 0.37 ×10⁻⁶ cm/s; Prediction (BBB penetration) ([13]; PAMPA-BBB): CNS+ (Pe (×10^−6 cm/s) > 3.44 × 10^−6 cm/s possess high BBB permeation); shift of characteristic UV peak after adding FeSO4 and ZnCl2 [7]: no significant shift; mole fraction at break (molar ratio method, compound-Cu^2+) ([7]; 37.5 μM compound, ascending CuCl2): 1.03; characteristic UV peak after adding AlCl3 (red shift) [7]: 370 nm; characteristic UV peak after adding CuCl2 (red shift) [7]: 422 nm; cytotoxicity in PC12 cells [14]: did not show obvious cytotoxicity; type of AChE inhibition [15]: mixed-type AChE inhibition; inhibition at 10 µM [16]: 23.9 ± 1.6%; inhibition at 50 µM [16]: 34.2 ± 2.3%; LDH vitality ([17]; PC12, 100 µM H2O2, compound 10 µM): 621.3; LDH vitality ([17]; PC12, 100 µM H2O2, compound 50 µM): 549.7; ORAC-FL value [10]: 3.3 eq
Cc1c(C)c2c(c(C)c1O)CC[C@@](C)(CCC[C@H](C)CCC[C@H](C)CCCC(C)C)O2 [Vitamin E, α-tocopherol, reference compound]	–	–	–	–	–	–	–	–	–	2.6 ± 0.06 μM of Trolox equivalent/μM of compounds	–	–	LDH vitality ([17]; PC12, 100 µM H2O2, compound 100 µM): 654.7
